Results on three molecules are retold here after BindingDB's records for PubMed 8078486 (Eli Lilly, 1994).

The structures appear in SMILES notation. pKi: −log10 of the molar value.

The target in assay [1] is 5-hydroxytryptamine receptor 2B (Homo sapiens, UniProt P41595).
For assay [2], the target named is 5-hydroxytryptamine receptor 2B (Rattus norvegicus, UniProt P30994).
Chain of 5-hydroxytryptamine receptor 2B (Rattus norvegicus, UniProt P30994) (P30994 whole entry): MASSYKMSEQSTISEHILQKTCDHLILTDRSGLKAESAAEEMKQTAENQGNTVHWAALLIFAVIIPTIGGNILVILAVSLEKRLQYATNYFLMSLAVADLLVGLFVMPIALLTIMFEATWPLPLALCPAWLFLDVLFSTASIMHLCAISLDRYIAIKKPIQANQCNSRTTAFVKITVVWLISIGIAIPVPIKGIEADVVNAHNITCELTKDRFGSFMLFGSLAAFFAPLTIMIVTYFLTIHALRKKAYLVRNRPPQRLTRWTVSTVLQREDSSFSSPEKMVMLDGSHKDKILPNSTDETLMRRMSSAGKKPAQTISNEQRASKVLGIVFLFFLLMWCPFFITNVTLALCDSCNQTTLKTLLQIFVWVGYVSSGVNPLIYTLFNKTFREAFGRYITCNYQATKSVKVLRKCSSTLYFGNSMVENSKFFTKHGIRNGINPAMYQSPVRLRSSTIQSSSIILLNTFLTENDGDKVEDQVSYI

Chain of 5-hydroxytryptamine receptor 2B (Homo sapiens, UniProt P41595) (P41595 whole entry): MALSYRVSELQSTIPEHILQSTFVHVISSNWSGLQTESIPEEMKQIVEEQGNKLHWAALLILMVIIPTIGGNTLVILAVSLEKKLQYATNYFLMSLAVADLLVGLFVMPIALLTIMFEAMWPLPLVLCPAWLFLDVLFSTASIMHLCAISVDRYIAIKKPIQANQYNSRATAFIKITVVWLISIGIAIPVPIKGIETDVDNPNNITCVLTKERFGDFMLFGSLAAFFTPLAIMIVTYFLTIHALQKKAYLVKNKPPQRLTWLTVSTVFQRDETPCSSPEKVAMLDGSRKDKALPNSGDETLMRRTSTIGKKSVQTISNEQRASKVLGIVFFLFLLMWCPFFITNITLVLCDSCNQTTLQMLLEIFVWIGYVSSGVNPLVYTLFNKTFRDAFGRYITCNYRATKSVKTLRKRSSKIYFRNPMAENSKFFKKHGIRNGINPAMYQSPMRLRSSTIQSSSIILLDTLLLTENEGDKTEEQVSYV

In the case of `O=C(CCCN1CCC2(CC1)C(=O)NCN2c1ccccc1)c1ccc(F)cc1` [8-[4-(4-fluorophenyl)-4-oxidanylidene-butyl]-1-phenyl-1,3,8-triazaspiro[4.5]decan-4-one], in assay [1], the pKi (as a rule, the negative decadic logarithm of the Ki, by convention in mol/L) was 6.16.
The same measure, in the same setting: the value for `Cn1cc(CCN)c2cc(O)ccc21` [5-HT,omega-N-Me] was 7.92.
Regarding `COc1cc(CC(C)N)c(OC)cc1I` (centres undefined) [[125I]2,5-dimethoxy-4-iodoamphetamine], the pKi was 7.70 in assay [1] and 7.58 in assay [2].
